The test system of test [1] is human primary muscle cells. As to the kind of experiment: Assay for myogenesis (troponin-T myotube detection). The class given is cell-based. Particulars: human primary myoblasts, donor 8 and donor 4; dose dependent response; compound treatment 96 hours after differentiation induction. An excerpt:
The inventors developed a high content screening to test in vitro compounds on human primary adult muscle cells. Human Skeletal Muscle Myoblasts (HSMM) were purchased from Lonza (https://bioscience.lonza.com). These cells were isolated from the upper arm or leg muscle tissue of normal donors and used after the second passage.
This secondary assay focused on the later stage of myogenesis when the muscle cells fuse together and form multinucleated myotubes. This assay was based on the detection of the mature troponin-T protein that is expressed in myotubes. In particular, two measurements were made:
Fusion factor, which is the % of nuclei that are inside the multinucleated myotubes compare to total nuclei and give a readout for muscle cell differentiation.
Myotube area, which is measured based on the Troponin T staining and give a readout on the myotube size and muscle fiber growth.
After one day, the differentiation is induced by a medium change. For treatment, compounds were directly added to the myoblast cultures for 96 hours. Myotubes were stained for TroponinT expression using antibodies directed against TroponinT and counterstained with Hoechst 33342 to visualize cell nuclei. Image acquisition was performed using the ImageXpress (Molecular Devices) platform. Custom module analysis based on Multi-Wavelength Cell Scoring of the MetaXpress software was used for quantification.

The subject of test [2] is human primary muscle stem cells. Briefly: Assay for muscle stem cell commitment (Pax7/MyoD immunofluorescence high content screening). The class given is cell-based. Particulars: Human Skeletal Muscle Myoblasts, donor 8 and donor 4, dose-dependent response, cultures grown 96 hours; for proportion of MyoD+ cells as percent of total cell number (myogenic commitment): MyoD+ = Pax7-/MyoD+ cells; for number of Pax7+ cells (expansion of human primary muscle stem cells): Pax7+ regardless of MyoD expression. Here is the method:
The inventors developed a high content screening to test in vitro compounds on human primary adult muscle cells. Human Skeletal Muscle Myoblasts (HSMM) were purchased from Lonza (https://bioscience.lonza.com). These cells were isolated from the upper arm or leg muscle tissue of normal donors and used after the second passage. Several donors were tested to ensure cell viability and purity before selecting the final donors, which are a person (Donor 8) and a person (Donor 4).
The primary screening assay was based on the high content detection of two important myogenic regulatory factors (Pax7 and MyoD) by immunofluorescence. Pax7 and MyoD are the major hallmarks of muscle stem cell stemness and commitment and can be used to monitor muscle stem cell progeny. In particular, Pax7 marks early amplification while MyoD is a later marker for myogenic commitment, and combinations of these markers define the different states of proliferation, differentiation and self-renewal.
Human primary myoblasts were seeded in 384 well plates at a density of 1′000 cells per well in skeletal muscle growth medium (SKM-M, AMSbio). For treatment, compounds were directly added to the myoblast cultures 16 hours after initial plating. All cultures were then grown for 96 hours. Cells were stained for Pax7 and MyoD expression using antibodies directed against Pax7 and MyoD and counterstained with Hoechst 33342 to visualize cell nuclei. […] Pax7+ cells are defined as cells that express Pax7 regardless of MyoD expression. Image acquisition was performed using the ImageXpress (Molecular Devices) platform. Custom module analysis based on Multi-Wavelength Cell Scoring of the MetaXpress software was used for quantification.

Structures are written as SMILES.

With `CC(C)(C)n1nc(-c2cccc3ccccc23)c2c(N)ncnc21` [Napthyl-PP1, 1-(1,1-Dimethylethyl)-3-(1-naphthalenyl)-1H-pyrazolo[3,4-d]pyrimidin-4-amine], in test [1], the “myofiber growth (area covered by troponinT-positive myotubes)” value is recorded as “enhances” and the “myogenic differentiation (Fusion Factor, percent nuclei within troponinT-positive myotubes)” value is given as “enhances”. In test [2], the “proportion of MyoD+ cells as percent of total cell number (myogenic commitment)” value is reported as “increase” and the “number of Pax7+ cells (expansion of human primary muscle stem cells)” value (“number of Pax7+ cells” for short) was “increase”.
Turning to `Cc1ccc(-c2nn(C(C)(C)C)c3ncnc(N)c23)cc1` [PP1, 1-(1,1-Dimethylethyl)-3-(4-methylphenyl)-1H-pyrazolo[3,4-d]pyrimidin-4-amine], the “myogenic differentiation (Fusion Factor, percent nuclei within troponinT-positive myotubes)” value in test [1] is “enhances”. For the same compound, in test [2], the “proportion of MyoD+ cells as percent of total cell number (myogenic commitment)” value is “increase” and the “number of Pax7+ cells” value is reported as “increase”.
Regarding `CC(C)(C)n1nc(-c2ccc(Cl)cc2)c2c(N)ncnc21` [PP2, 3-(4-Chlorophenyl)-1-(1,1-dimethylethyl)-1H-pyrazolo[3,4-d]pyrimidin-4-amine], the “myogenic differentiation (Fusion Factor, percent nuclei within troponinT-positive myotubes)” value in test [1] is listed as “enhances”. In addition, in test [2], the “proportion of MyoD+ cells as percent of total cell number (myogenic commitment)” value is “increase” and the “number of Pax7+ cells” value is recorded as “increase”.
